Data from patent publication US20090297438A1, “Human Monoclonal Antibodies to Prostate Specific Membrane Antigen (PSMA)” (priority 2005, published 2009).

Test system: LNCaP human prostate carcinoma xenografts
Assay: LNCaP tumor xenografts treated with Taxotere and 7F12 antibody
Format: in vivo, male CB17.SCID mice
Conditions: Taxotere alone, 2 and 4 mg/kg iv
Protocol: The anti-tumor efficacy of the anti-PSMA 7F12 antibody in combination with Taxotere® (docetaxel) was tested on LNCaP human prostate carcinoma xenografts grown in male CB17.SCID mice.
LNCaP prostate cancer cells expressing high levels of PSMA were obtained from ATCC (Cat# CRL-1740) and expanded in vitro following ATCC instruction. 8 week-old male CB17.SCID mice from Taconic were implanted subcutaneously in the right flank with 2.5×10^6 LNCaP cells in 0.2 ml of PBS/Matrigel (1:1) per mouse. Mice were weighed and measured for tumor volume using an electronic caliper twice weekly starting three weeks post implantation. Tumor volumes were calculated as height×width×length. Mice with vascularized tumors (determined by the appearance of the tumors) of 180 mm^3 were randomized into treatment group and were dosed per individual body weight on Day 0. Mice were monitored for tumor growth around 60 days post dosing and terminated at the end of the study. Mice were euthanized when the tumors reached tumor end point (1500 mm^3). Taxotere® was dosed at Q3Dx3 intravenously (iv) through the tail vein. Isotype control antibody Rituxan® and the anti-PSMA 7F12 antibody were dosed intraperitoneally (ip) Q3Dx5, followed with Q7Dx6.

Question: With `CC(=O)O[C@@]12CO[C@@H]1C[C@H](O)[C@@]1(C)C(=O)[C@H](O)C3=C(C)[C@@H](OC(=O)[C@H](O)[C@@H](NC(=O)OC(C)(C)C)c4ccccc4)C[C@@](O)([C@@H](OC(=O)c4ccccc4)[C@H]21)C3(C)C` [Taxotere®, docetaxel] as the compound, how does the anti-tumor growth efficacy read?
Answer: The anti-tumor growth efficacy was “dose-dependent anti-tumor growth efficacy”.
